The record followed here is US8143237B2, “Anti-cancer drugs, and uses relating for malignant melanoma and other cancers” (Kasina Laila Innova Pharmaceuticals Private Limited, priority 2009, dated 2012).

The test system of data set [1] is mouse malignant melanoma B16 F0 cells. The data set can be described thus: MTT based cell proliferation assay, B16 F0 cells. The following applies: for IC50: Mus musculus, B16F0, 72 h, MTT, three days incubation, read-out: Cell proliferation inhibition in B16F0 cells, IC50. The procedure:
(§1) The cytotoxic efficacies of the various selenopheno triazene compounds (compounds 1 to 16) was evaluated in both human malignant melanoma A375 cells and mouse malignant melanoma B16 F0 cells by MTT cell proliferation assay kit (Roche Applied Sciences, Germany). The assay was carried out according to the instruction provided by the vendor. Briefly, equal numbers of cells was plated in 96-well flat-bottomed plates and were incubated with both DTIC and the test compounds (compounds 1 to 16) at various concentrations for a period of three days. […] Finally, the cells were solubilized by adding solubilizing solution and allowed to incubate at 37° C. overnight. After complete solubilization of the formazan crystals, the absorbance was read at 540 nm in a microplate reader (BioRad, USA).

Data set [2] deals with B16F0 cells. The data set is described as follows: B16 F0 mouse melanoma cell colony formation assay. The following applies: 8 days. It is filed as cell-based. The procedure: Inhibitory efficacy in clone formation of the Compound 1 and DTIC was tested by following the procedure described earlier with some modifications. Briefly, B 16F0 cells were harvested and seeded into 6-well plates (100 cells/ml). The cells were allowed to grow for 4 days and thereafter, the cells were incubated with DMEM containing either 0.1% DMS 0 or 100 μg/ml DTIC or different concentrations (1, 5, 10 or 20 μg/ml) of Compound 1 for further 8 days. Fresh medium containing test agents was replaced at every 24 h. Finally, the wells were washed three times with PBS and fixed in methanol for 15 min. The cells were stained with Giemsa stain and observed under microscope. The image of the stained wells were captured digitally (Kodak Image Station 4000 mM, Carestream Health Inc., New Haven, Conn.) and number of colonies were counted and analyzed by using NIH Image J software.

Data set [3] concerns human malignant melanoma A375 cells. The data set can be described thus: MTT based cell proliferation assay, A375 cells. The following applies: A-375, 72 h, three days incubation, read-out: Cell proliferation inhibition in A375 cells, IC50. On the procedure:
as §1

The test system of data set [4] is HS.531.sk normal human skin epithelial cells. In kind it is cell-based. The conditions noted are these: 3 days. On the procedure: (§2) MTT [3-(4,5-dimethylthiazol-2-yl)-2,5-diphenyltetrazolium bromide] incorporation based cell proliferation assay was performed using standard procedure. The cytotoxic efficacies of the various selenopheno triazene compounds (compounds 1 to 16) was evaluated in both human malignant melanoma A375 cells and mouse malignant melanoma B16 F0 cells by MTT cell proliferation assay kit (Roche Applied Sciences, Germany). The assay was carried out according to the instruction provided by the vendor. Briefly, equal numbers of cells was plated in 96-well flat-bottomed plates and were incubated with both DTIC and the test compounds (compounds 1 to 16) at various concentrations for a period of three days. Vehicle control culture wells received only a maximum of 0.5% DMSO. Thereafter, 0.5 mg/ml of MTT reagent was added to each well and the microplate was incubated further for 4 h at 37° C. in presence of 5% CO2. Finally, the cells were solubilized by adding solubilizing solution and allowed to incubate at 37° C. overnight. After complete solubilization of the formazan crystals, the absorbance was read at 540 nm in a microplate reader (BioRad, USA). The results (mean OD±SD) obtained from quadruplicate wells were used in calculation to determine the inhibition of cell proliferation (50% of inhibitory concentration, IC50) of the test compounds (compounds 1 to 16) (Table 1).
Next, to check whether the Compound 1 can selectively kill the melanoma cells without or minimally affecting the normal cells, we assessed the comparative efficacy of the Compound 1 and DTIC on cell growth inhibition of HS.531.sk normal human skin epithelial cells. The growth inhibitory effect of the test compound and DTIC was assessed by MTT proliferation assay as described earlier (Example 17). The comparative efficacies of Compound 1 and DTIC in inhibiting the normal skin epithelial cell growth are depicted in FIG. 2.

The test system of data set [5] is B16F0 mouse melanoma cells. The data set is described as follows: Matrigel cell invasion assay. The conditions noted are these: 24 h. In kind it is cell-based. The procedure: The inhibitory effects of DTIC and compound 1 on invasive ability of B16F0 were tested in cell invasion assay performed with by using Matrigel (BME-Cultrex®, R&D Systems, USA) coated cell culture inserts (Becton Dickinson, USA) with 8 μm-pore membrane. Equal number (fifty thousands) of B16F0 cells were applied in each insert well and allowed to attach for 2 h at 37° C. and in presence of 5% CO2. Thereafter, the cellular invasion through the matrigel layer was performed in presence or absence of test compounds. Either 100 μg/ml of DTIC or 20 μg/ml of Compound 1 was applied in the lower chamber of the invasion assembly. 0.1% DMSO was applied in the vehicle control culture chambers. After 24 h treatment, the matrigel layer containing cells was removed with cotton plug and the invaded cells on the other side of the membrane were fixed with methanol for 5 min and then stained with Giemsa. The stained membrane was mounted on a glass slide and number invaded cells were counted in 20 random fields (20× objective) under a light microscope (Nikon Eclipse TS 100).

In data set [6] the test system is DU145 prostate tumor cells. The data set is described as follows: MTT based cell proliferation assay, DU145. The following applies: Homo sapiens, DU-145, read-out: Anti-tumor growth potential (IC50) in DU145. The procedure: as §2, with “Finally, the cells were solubilized by adding solubilizing solution and allowed to incubate at 37° C. overnight.” left out, “The results (mean OD±SD) obtained from quadruplicate wells were used in calculation to determine the inhibition of cell proliferation (50% of inhibitory concentration, IC50) of the test compounds (compounds 1 to 16) (Table 1).” left out
(§3) Anti-tumor growth potential of Compound 1 and DTIC were evaluated in various human tumor cells such as A549 lung tumor cells, DU145 prostate tumor cells, HT29 colon cancer cells and MCF-7 (ER^+) breast tumor cells in vitro, by using MTT based cell proliferation assay as described earlier (example 17). […]

Data set [7] relates to HT29 colon cancer cells. The data set is described as follows: MTT based cell proliferation assay, HT29. The conditions noted are these: Homo sapiens, HT-29, read-out: Anti-tumor growth potential (IC50) in HT29. The procedure:
as §2, with “Finally, the cells were solubilized by adding solubilizing solution and allowed to incubate at 37° C. overnight.” left out, “The results (mean OD±SD) obtained from quadruplicate wells were used in calculation to determine the inhibition of cell proliferation (50% of inhibitory concentration, IC50) of the test compounds (compounds 1 to 16) (Table 1).” left out
as §3

Usually inhibition stands for the change of the read-out against control, counted positive when it falls.

In brackets after ≈: the same amount, converted by molar mass. Entries after “also recorded” stand apart in the source; their conditions may differ. Like-named read-outs stand apart in the source and are kept apart here.

Regarding `Cc1[se]c(C(N)=O)cc1/N=N/N(C)C` [Compound 1, 4-[(dimethylamino)diazenyl]-5-methylselenophene-2-carboxamide], the “Potency of inhibition relative to Dacarbazine, mouse melanoma B16 cells” value in data set [1] (MTT IC50 comparison) was 5 times. The IC50 in data set [1] amounted to 46.6 µg/mL (≈ 180 µM); in data set [3], 9.81 µg/mL (≈ 37.9 µM); in data set [6], 8.97 µg/mL (≈ 34.6 µM); in data set [7] it was 13.3 µg/mL (≈ 51.3 µM). Further, the “Reduction in number of B16 colonies” value is given as 11% in data set [2] (at 1 μg/ml), 35% in data set [2] (at 5 μg/ml), 54% in data set [2] (at 10 μg/ml) and 94% in data set [2] (at 20 μg/ml). For the same molecule, the “Growth inhibition of HS.531.sk normal human skin epithelial cells” value in data set [4] (25 μg/ml) came to 2.33%; in data set [4] (50 μg/ml) it was 23.83%. The “B16 F0 melanoma tumor cell invasion vs vehicle control” value in data set [5] (20 μg/ml, p=0.0017) is “significantly reduced; also recorded: significantly inhibited the invasion”.
`CN(C)N=Nc1[nH]cnc1C(N)=O` [DTIC, 5-(3,3-dimethyl-1-trizeno)-imidazole-4-carboxamide, reference compound]: the IC50 was found to be 325 µg/mL (≈ 1790 µM) in data set [1], 70.1 µg/mL (≈ 385 µM) in data set [3], 58.5 µg/mL (≈ 321 µM) in data set [6] and 141 µg/mL (≈ 774 µM) in data set [7]. In addition, the inhibition at 100 µg/mL in data set [2] (Mus musculus, B16F0, 192 h, at 100 μg/ml, read-out: Inhibition of B16 colony formation (number of colonies)) turned out to be 35.8%. In addition, the “Growth inhibition of HS.531.sk normal human skin epithelial cells” value stood at 34.58% in data set [4] (25 μg/ml) and 43.46% in data set [4] (50 μg/ml). In data set [5] (100 μg/ml), the “B16 F0 melanoma tumor cell invasion vs vehicle control” value is given as “could not significantly inhibit; also recorded: failed to inhibit the tumor cell invasion”.
